Source: patent publication US20130217735A1, “FUNGICIDAL COMPOSITIONS AND METHODS OF USE” (Agri-Food and BioSciences Institute, priority 2010, published 2013)
Like-named read-outs stand apart in the source and are kept apart here.

Legend:
P. erythroseptica = assay: Example 8 sensitivity testing of potato tuber pathogens to imazalil derivatives (EC50); format: cell-based, Phytophthora erythroseptica; conditions: for EC50: Trial B, read-out: EC50 (concentration required to reduce mycelial growth by 50%)
Experimental: (§1) For tests with imazalil sulphate and imazalilium docusate prepared according to Trial B, imazalil sulphate (0.5 g, drug pure, Janssen) was dissolved in sterile water (100 ml) to give a stock solution (12.7 mM). […] Dilutions (alternately five-fold and two-fold) of each of these stock solutions were prepared (in water for imazalil sulphate and in ethanol for imazalilium docusate) to produce a dilution series (12.7, 2.54, 1.27, 0.25, and 0.13 mM).
(§2) Log-probability plots of the percentage reduction in growth against the concentration were used to estimate EC50 values (the concentration required to reduce mycelial growth by 50%) (see Table 6).

F. coeruleum = assay: as above; format: cell-based; conditions: isolate F. coeruleum ex B7/06 T8; Trial B; read-out: EC50 (concentration required to reduce mycelial growth by 50%)
Experimental: as §1, §2

Phoma foveata = assay: as above; format: cell-based; conditions: isolate Phoma foveata BL2/5 T3, Trial B, read-out: EC50 (concentration required to reduce mycelial growth by 50%)
Experimental: as §1, §2

F. sambucinum = assay: as above; format: cell-based; conditions: Trial B, read-out: EC50 (concentration required to reduce mycelial growth by 50%)
Experimental: as §1, §2

F. culmorum = assay: as above; format: cell-based; conditions: isolate F. culmorum P13, Trial B, read-out: EC50 (concentration required to reduce mycelial growth by 50%)
Experimental: as §1, §2

Phoma exigua = assay: as above; format: cell-based; conditions: isolate Phoma exigua 9.1; Trial B; read-out: EC50 (concentration required to reduce mycelial growth by 50%)
Experimental: as §1, §2

[1] = Thermogravimetric analysis (thermal stability); format: physicochemical; conditions: TGA under nitrogen, 5° C./min
Experimental: Thermogravimetric analysis was performed on a Mettler Toledo Star^e TGA/DSC (Leicester, UK) under nitrogen. Samples between 5 and 10 mg were placed in open alumina pans and were heated from 25° C. to 600° C. with a heating rate of 5° C./min. Decomposition temperatures (T5% dec) were reported from onset to 5 wt % mass loss Infrared spectra were recorded as neat samples from 4000-450 cm^−1 on a Perkin-Elmer Spectrum 65 FT-IR spectrometer fitted with a Universal ATR Sampling Accessory. Differential scanning calorimetry (DSC) was performed on a Mettler Toledo Star^e DSC (Leicester, UK) under nitrogen. Samples between 5 and 10 mg were heated from 25° C. to 110° C. at a heating rate of 5° C./min followed by a 5 min isotherm. A cooling rate of 5° C./min to −70° C. was followed by a 5 min isotherm at −70° C., and the cycle was repeated twice. A melting transition was observed as single-event peak in the first run. […] Transitions above ambient temperature were confirmed optically on a Stuart SMP3 melting point apparatus.

[2] = system: Phytophthora erythroseptica; assay: Example 7 sensitivity testing of potato tuber pathogens to thiabendazole derivatives; format: cell-based; conditions: in words; Table 5
Experimental: In vitro tests of the IL thiabendazolium docusate were performed in comparison to the neutral fungicide using selected isolates of Fusarium spp., the cause of potato dry rot. F. coeruleum and F. culmorum are sensitive to thiabendazole whereas isolates of F. sambucinum are frequently resistant. Isolates of Phoma spp., the cause of gangrene, and Phytophthora erythroseptica, the cause of pink rot, were also tested. All except F. sambucinum ex SASA were isolated in a laboratory. F. sambucinum ex SASA was supplied by SASA (Science and Advice for Scottish Agriculture, Roddinglaw Road, Edinburgh, EH12 9F, UK).
In each test three replicate plates for each organism per concentration were used and tests were repeated at least once.

[3] = isolate P. erythroseptica BL2/08 P31

Work on `C=CCOC(Cn1ccnc1)c1ccc(Cl)cc1Cl` (stereo not drawn) [Imazalil, imazalil, reference compound] yielded an EC50 (P. erythroseptica; Phytophthora erythroseptica, isolate P. erythroseptica Rooster Eire) of over 127 µM, an EC50 (P. erythroseptica; [3]) of over 127 µM and an EC50 (F. coeruleum) of 12.9 µM. For the same compound, the EC50 (Phoma foveata; Boeremia foveata) was 2.7 µM, the EC50 (F. sambucinum; Fusarium sambucinum, isolate F. sambucinum L'gall 11) was 1.8 µM and the EC50 (F. sambucinum; Fusarium sambucinum, isolate F. sambucinum ex SASA, log-probability plot) was 0.7 µM. For the same compound, the EC50 (F. culmorum; Fusarium culmorum) was 0.4 µM and the EC50 (Phoma exigua) was 5.6 µM.

In the case of `C=CCOC(Cn1ccnc1)c1ccc(Cl)cc1Cl` (stereo not drawn) [Imazalilium docusate, imazalilium docusate], the “T5% onset (decomposition temperature, onset to 5 wt % mass loss)” value [1] is reported as 208.8 °C, the “activity against P. erythroseptica” value (P. erythroseptica; in words, Table 6) is reported as “showed some activity” and the EC50 (P. erythroseptica; [3]) is reported as 38.4 µM. It also gave an EC50 (P. erythroseptica; isolate P. erythroseptica Rooster Eire) of 100 µM, an EC50 (F. coeruleum) of 19.2 µM and an EC50 (Phoma foveata) of 4.6 µM. For the same compound, the EC50 (F. sambucinum; isolate F. sambucinum L'gall 11) was 2.6 µM, the EC50 (F. sambucinum; isolate F. sambucinum ex SASA, log-probability plot) was 1 µM and the EC50 (F. culmorum) was 0.4 µM. The EC50 (Phoma exigua) was 7.3 µM.

In the case of `c1ccc2[nH]c(-c3cscn3)nc2c1` [TBZ docusate, thiabendazolium docusate], the “activity against P. erythroseptica compared with thiabendazole alone” value [2] is reported as “more active” and the “T5% onset (decomposition temperature, onset to 5 wt % mass loss)” value [1] is reported as 252.0 °C.

With `CCn1cc[n+](C)c1.CCn1cc[n+](C)c1.S=C([S-])NCCNC(=S)[S-]` [[C2mim]2ebdtc, di(1-ethyl-3-methylimidazolium)ethylenbis-(dithiocarbamate)] the “T5% onset (decomposition temperature, onset to 5 wt % mass loss)” value [1] was 147.1.
